Laboratory results taken from patent US20060293216A1, “Pharmaceutical compositions comprising an active agent and chitosan for sustained drug release or mucoadhesion” (ADVANCED BIOPOLYMERS AS, priority 2003, published 2006).
Blank lines part the entries; values can stand above or below the compound they belong to.

How the values were obtained:
Assay type in all cases: physicochemical
[1] = Release of acetylsalicylic acid from chitosan (dialysis, UV); settings: acetylsalicylic acid 100 mg, chitosan 250 mg, against tris buffer pH7
Method: Acetylsalicylic acid (100 mg) and chitosan (various degrees of acetylation) (250 mg) were added to a diluted aqueous HCl solution at pH 2 (10 ml). The mixture was stirred for 30 minutes at 80° C., cooled to room temperature, transferred to a dialysis tube (cut off 12-14 kDa) and dialysed against tris buffer pH7 (100 ml). The amount of acetylsalicylic acid in the dialysate was determined by UV.
(§1) An experiment without chitosan was performed as a comparison.
The amounts of acetylsalicylic acid in dialysate are shown in Table 1 as a percentage of maximum detected amounts.

[2] = Release of warfarin from warfarin/chitosan (dialysis, UV 293 nm); settings: buffered solution pH 7.4
Method: The salt of warfarin/chitosan (from Example 7 above) (1.09 g) was suspended in a buffered solution with pH 7.4 (10 ml). The suspension was transferred into the dialysis tube (cut off 12-14 kDa) before the tube was transferred into a buffered solution of pH 7.4 (100 ml) under continuous stirring. 2 ml samples of the dialysate were taken at different times and the UV-absorbances measured with an UV-apparatus at 293 nm. As a control experiment, warfarin (0.38 g, 1.2 mmol) was dissolved in a buffered solution of pH 7.4 (10 ml) and transferred into the dialysis tube (cut off 12-14 kDa). 2 ml samples of the dialysate were taken at different times and the UV-absorbances measured with an UV-apparatus at 293 nm. The amounts of warfarin in dialysate are shown in Table 3 as a percentage of maximum detected amounts.

[3] = Effect of chitosan on availability of norfloxacin (dialysis, UV); settings: norfloxacin 100 mg, against tris buffer pH 7
Method: Norfloxacin (100 mg) and chitosan (FA=0.35, η=1250) (250 mg) were added to a diluted aqueous HCl solution pH 2 (10 ml). The mixture was stirred for 2 hours at 80° C., cooled to room temperature and dialysed against tris buffer pH 7 (100 ml). The amount of norfloxacin in dialysate was determined by UV.
as §1
The amounts of norfloxacin in dialysate are shown as a percentage of maximum detected amounts.

[4] = Release of paracetamol through a dialysis membrane with and without chitosan; settings: 10 mM paracetamol in 154 mM NaCl, pH 4.5; 3 (w/v)% chitosan (FA 0.41, hydrochloride salt); followed for 2 days; FIG. 1
Method: The chitosan used in this Example was prepared from a chitosan produced as described in WO 03/011912 (FA 0.41, [η]=1060 ml/g), which was depolymerized and at the same time converted to the chitosan hydrochloride salt using 3M ethanolic HCl. Excess ethanolic chitosan was removed, the chitosan washed with excess 70% ethanol, 96% ethanol and finally dried to obtain the chitosan hydrochloride salt. The intrinsic viscosity was determined to 200 ml/g, corresponding to a number-average molecular weight of 40 000 (Anthonsen et al., 1993, Carbohydr. Polym. (1993) 22 193-201). 10 mM Paracetamol was dissolved in 154 mM NaCl at pH 4.5. Each of the solutions containing salicylate or paracetamol was added to a small glass vial (10 ml) equipped with a dialysis membrane (d=14.3 mm, cut off 10-12 kDa). The glass vials were placed in a 1 litre reservoir containing 154 mM NaCl, pH 4.5. Samples of 3.0 ml were regularly withdrawn from the reservoir and the absorbance was measured at 297.0 nm (salicylic acid) and 243.3 nm (paracetamol). Each experiment was run with 6 parallels. The same experiment was performed with paracetamol and the salicylate solutions to which had been added 3 (w/v)% of the chitosan. […] No difference in the release profile of the neutral drug paracetamol with and without chitosan could be detected.

[5] = Release of salicylate through a dialysis membrane with and without chitosan; settings: 30 mM salicylate in 154 mM NaCl, pH 4.5; 3 (w/v)% chitosan (FA 0.41, hydrochloride salt); FIG. 2
Method: The chitosan used in this Example was prepared from a chitosan produced as described in WO 03/011912 (FA 0.41, [η]=1060 ml/g), which was depolymerized and at the same time converted to the chitosan hydrochloride salt using 3M ethanolic HCl. Excess ethanolic chitosan was removed, the chitosan washed with excess 70% ethanol, 96% ethanol and finally dried to obtain the chitosan hydrochloride salt. The intrinsic viscosity was determined to 200 ml/g, corresponding to a number-average molecular weight of 40 000 (Anthonsen et al., 1993, Carbohydr. Polym. (1993) 22 193-201). 30 mM Salicylic acid was dissolved in distilled water upon addition of equimolar amounts of sodium hydroxide, and sodium chloride was added to a final concentration of 154 mM. The pH was adjusted to 4.5. Each of the solutions containing salicylate or paracetamol was added to a small glass vial (10 ml) equipped with a dialysis membrane (d=14.3 mm, cut off 10-12 kDa). The glass vials were placed in a 1 litre reservoir containing 154 mM NaCl, pH 4.5. Samples of 3.0 ml were regularly withdrawn from the reservoir and the absorbance was measured at 297.0 nm (salicylic acid) and 243.3 nm (paracetamol). Each experiment was run with 6 parallels. The same experiment was performed with paracetamol and the salicylate solutions to which had been added 3 (w/v)% of the chitosan. […]

SMILES: CC(=O)Oc1ccccc1C(=O)O [No chitosan, Acetylsalicylic acid]
- amount of acetylsalicylic acid in dialysate ([1]; time for dialysis 0.25 hours): 52 percentage of maximum detected amounts
- amount of acetylsalicylic acid in dialysate ([1]; time for dialysis 0.5 hours): 87 percentage of maximum detected amounts
- amount of acetylsalicylic acid in dialysate ([1]; time for dialysis 1 hour): 97 percentage of maximum detected amounts
- amount of acetylsalicylic acid in dialysate ([1]; time for dialysis 2 hours): 98 percentage of maximum detected amounts
- amount of acetylsalicylic acid in dialysate ([1]; time for dialysis 19 hours): 99 percentage of maximum detected amounts

SMILES: CC(=O)CC(c1ccccc1)c1c(O)c2ccccc2oc1=O (stereo not shown) [Warfarin]
- amount of warfarin in dialysate ([2]; time 2½ hours): 49.8 percentage of maximum detected amounts
- amount of warfarin in dialysate ([2]; time 4 hours): 49.0 percentage of maximum detected amounts
- amount of warfarin in dialysate ([2]; time 20 hours): 100 percentage of maximum detected amounts
- amount of warfarin in dialysate ([2]; time ½ hours): 14.8 percentage of maximum detected amounts

SMILES: CCn1cc(C(=O)O)c(=O)c2cc(F)c(N3CCNCC3)cc21 [Without chitosan, Norfloxacin]
- amount of norfloxacin in dialysate ([3]; time for dialysis 0.25 hours): 66 percentage of maximum detected amounts
- amount of norfloxacin in dialysate ([3]; time for dialysis 0.5 hours): 72 percentage of maximum detected amounts
- amount of norfloxacin in dialysate ([3]; time for dialysis 1 hour): 100 percentage of maximum detected amounts
- amount of norfloxacin in dialysate ([3]; time for dialysis 2 hours): 100 percentage of maximum detected amounts
- amount of norfloxacin in dialysate ([3]; time for dialysis 4 hours): 100 percentage of maximum detected amounts

- release profile of paracetamol with and without chitosan [4]: No difference
SMILES: CC(=O)Nc1ccc(O)cc1 [paracetamol, Paracetamol]

- release of salicylate with and without chitosan [5]: clear difference
SMILES: O=C(O)c1ccccc1O [salicylate, Salicylic acid]
